One series deals with T1, HAT (EP300) domain (Homo sapiens, UniProt Q09472).
T1 sequence (Q09472 1287-1663 limits assumed): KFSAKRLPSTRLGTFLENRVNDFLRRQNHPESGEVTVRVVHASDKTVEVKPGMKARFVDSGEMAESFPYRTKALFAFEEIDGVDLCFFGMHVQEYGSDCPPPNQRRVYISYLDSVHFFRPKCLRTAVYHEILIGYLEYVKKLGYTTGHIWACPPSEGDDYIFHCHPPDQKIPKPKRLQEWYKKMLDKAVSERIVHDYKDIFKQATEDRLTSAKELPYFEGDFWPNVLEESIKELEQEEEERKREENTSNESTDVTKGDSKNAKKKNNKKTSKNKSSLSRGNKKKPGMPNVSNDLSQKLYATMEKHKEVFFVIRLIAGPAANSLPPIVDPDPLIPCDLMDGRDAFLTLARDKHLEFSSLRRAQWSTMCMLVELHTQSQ
The series can be described thus: AlphaScreen assay, HAT (EP300) domain. The class given is binding. How it is done:
The AlphaScreen™ assay was performed in 384-well plate format using white AlphaPlate (PerkinElmer®, USA), and transfer of pre-diluted compound (100 nL) was performed using a Janus Workstation (PerkinElmer®, USA). All subsequent steps were carried out in assay buffer (50 mM 4-(2-hydroxyethyl)-1-piperazineethanesulfonic acid (HEPES), pH 7.5, 0.1% (wt/vol) bovine serum albumin (BSA) and 0.01% (vol/vol) Tween-20). In brief, 10 μL of assay buffer containing enzyme (2 nM Final) was pre-incubated for 15 min with dilutions of compound. The enzyme reaction was initiated by the addition of substrate (5 μL) consisting of acetyl Co-A 2-OG (5 μM Final).
FAS final concentration was 10 μM. Histone tail-GGK Biotin final concentration was 100 nM Final. The enzyme reaction was allowed to proceed for 30 minutes and was stopped by the addition of 5 μL of assay buffer containing ethylenediaminetetraacetic acid (EDTA) (40 mM) and NaCl (1200 mM). The final concentration of dimethyl sulfoxide (DMSO) was 1%. Streptavidin donor beads (0.08 mg/mL) and protein-A-conjugated acceptor beads (0.08 mg/mL) were preincubated for 1 h with antibody to methyl mark (300 ng/mL Final), and the presence of histone H3 product acetylation mark was detected using the preincubated AlphaScreen™ beads (5 μL). Detection was allowed to proceed for 2 hours at rt, and the assay plates were read on the Envision™ 2104 plate reader. Data were normalized to the (no-enzyme) control, and the IC50 values were determined via nonlinear regression curve fit using GraphPad Prism (FIG. 4E-FIG. 4H).
AlphaScreen™ assay was used to determine the binding of inventive degrader compound toward both CRBN and HAT domain. The experimental protocol is the same as in Example 26.

Another series addresses T2, EP300 (Homo sapiens, UniProt Q09472).
T2 construct: Whole cell lysates were collected using ice cold lysis buffer; endogenous in cells; host or cells: Kelly neuroblastoma cells (incl. Ch2.2, LACZ and CRBN knockout lines)
The series can be described thus: Proteomics analysis in Kelly NB cells, EP300. The class given is cell-based. The conditions noted are these: 500 nM, 6 hours and 36 hours. As to the method:
FIG. 9C is a plot of the proteomics analysis results after treating Kelly NB cells with CPD 1 (500 nM) at 6 hours and 36 hours.

Another series concerns MM.1S cells. Description: 4-day growth inhibition assay (ATPlite / cell counting kit), MM.1S cells. The class given is cell-based. The conditions noted are these: 0-10 μM. How it is done: An aliquot of the ATP standard solution (ATPlite™ 1000 assay kit, PerkinElmer®, USA) was used to prepare a dilution series in water. A series of 100 μL of complete culture medium was pipetted without cells into the wells of the plate. To each well was added 50 μL of the mammalian cell lysis solution, and the plate was shaken for 5 minutes in an orbital shaker at 700 rpm. 10 μL of the ATP dilution series was added to the wells, and the plate was shaken for 5 minutes in an orbital shaker at 700 rpm. 50 μL of the substrate solution was added and the plate was shaken for 5 minutes in an orbital shaker at 700 rpm. The plate dark adapted the plate for 10 minutes prior to measuring the luminescence and then preparing a standard curve.
(In ATP-based viability assays light output follows the ATP content of the culture.)

For a further series, the target named is T3, CBP (Homo sapiens, UniProt Q92793).
T3 construct: endogenous in cells; host or cells: Kelly neuroblastoma cells (incl. Ch2.2, LACZ and CRBN knockout lines)
Description: Immunoblot in CRBN knockout Kelly cell lines, CBP. It counts as cell-based. Particulars: CRBN-1 and CRBN-3 Kelly lines, 500 nM. As to the method: (§1) CPD 1 was tested in CRBN knockout (k/o) Kelly cell lines. The experimental protocol is the same as in Example 24.

A further series has as its system CRBN k/o cell lines. Description: Cell viability in CRBN knockout Kelly cell lines. The class given is cell-based. How it is done: as §1
Series [1] in a line: Mouse PK after intraperitoneal injection, blood concentration by LCMS/MS. Particulars: IP 10 mg/kg, male CD1 mice. It counts as in vivo. How it is done: The compound concentration in animal blood was measured by LCMS/MS through a series bleeding at different time points. […] A-485 half life is 0.7 h in mice.
Maximum tolerance dose (MTD) of each candidate was determined in zebrafish embryos. 3-day-old zebrafish embryos were exposed to different drug concentrations and monitored for adverse health effects. […] Experiments were first carried out with compound CPD 1 as a guide in the further design of MTD assessment of lead EP300 degraders (FIG. 6B). The MTD of the degrader is also determined in mice in the similar manor. Briefly, mice were dosed with test compounds and blood and plasma is isolated at specific intervals post-administration (0.083, 0.25, 0.5, 1, 2, 4, 8, 12, and 24 h) and quantified for the presence of test article by LC/MS/MS (n=5 mice/compound). In vivo mouse PK experiments were used to determine these parameters and inform iterative rounds of medicinal chemistry for optimization of EP300 degraders (FIG. 6A). As degraders have a relatively large molecular weight, the proper formulation is investigated to increase the solubility and stability of the degraders for in vivo study. Together, these parameters, including the established MTD, are used to guide the in vivo study design, such as administration method, dosing, and schedule for the following experiment. The information obtained was also used to guide the degrader optimization conducted in Example 36.

A short description of series [2]: Maximum tolerated dose (MTD) study in mice. It counts as in vivo. Particulars: mice, 10, 20 and 40 mg/kg. As to the method: CPD 1 was tested in mice for maximum tolerated dose (MTD) (FIG. 6A). The mice were treated with 10 mg/kg (mpk), 20 mpk, and 40 mpk with 4 mice in each group. The compound was also tested in human CRBN knock in mice, the blood samples were collected after 21 day treatment. All the tested blood samples were normal.

The test system of series [3] is Kelly cell lines xenograft. Description: Xenograft model of Kelly cell lines. It counts as in vivo. Particulars: 40 mpk IP from day 10. An excerpt:
The xenograft model of Kelly cell lines was used to assess the in vivo efficacy. The Kelly cells were implanted 2 M into animals. The treatment started with day 10 at 40 mpk IP.

Molecules are shown by their SMILES.

What is called Cmax is the highest concentration seen after dosing. One may read the half-life as the time needed for the level to fall by half in the phase considered. A high value points to slow loss.

T2 sequence (Q09472 whole entry): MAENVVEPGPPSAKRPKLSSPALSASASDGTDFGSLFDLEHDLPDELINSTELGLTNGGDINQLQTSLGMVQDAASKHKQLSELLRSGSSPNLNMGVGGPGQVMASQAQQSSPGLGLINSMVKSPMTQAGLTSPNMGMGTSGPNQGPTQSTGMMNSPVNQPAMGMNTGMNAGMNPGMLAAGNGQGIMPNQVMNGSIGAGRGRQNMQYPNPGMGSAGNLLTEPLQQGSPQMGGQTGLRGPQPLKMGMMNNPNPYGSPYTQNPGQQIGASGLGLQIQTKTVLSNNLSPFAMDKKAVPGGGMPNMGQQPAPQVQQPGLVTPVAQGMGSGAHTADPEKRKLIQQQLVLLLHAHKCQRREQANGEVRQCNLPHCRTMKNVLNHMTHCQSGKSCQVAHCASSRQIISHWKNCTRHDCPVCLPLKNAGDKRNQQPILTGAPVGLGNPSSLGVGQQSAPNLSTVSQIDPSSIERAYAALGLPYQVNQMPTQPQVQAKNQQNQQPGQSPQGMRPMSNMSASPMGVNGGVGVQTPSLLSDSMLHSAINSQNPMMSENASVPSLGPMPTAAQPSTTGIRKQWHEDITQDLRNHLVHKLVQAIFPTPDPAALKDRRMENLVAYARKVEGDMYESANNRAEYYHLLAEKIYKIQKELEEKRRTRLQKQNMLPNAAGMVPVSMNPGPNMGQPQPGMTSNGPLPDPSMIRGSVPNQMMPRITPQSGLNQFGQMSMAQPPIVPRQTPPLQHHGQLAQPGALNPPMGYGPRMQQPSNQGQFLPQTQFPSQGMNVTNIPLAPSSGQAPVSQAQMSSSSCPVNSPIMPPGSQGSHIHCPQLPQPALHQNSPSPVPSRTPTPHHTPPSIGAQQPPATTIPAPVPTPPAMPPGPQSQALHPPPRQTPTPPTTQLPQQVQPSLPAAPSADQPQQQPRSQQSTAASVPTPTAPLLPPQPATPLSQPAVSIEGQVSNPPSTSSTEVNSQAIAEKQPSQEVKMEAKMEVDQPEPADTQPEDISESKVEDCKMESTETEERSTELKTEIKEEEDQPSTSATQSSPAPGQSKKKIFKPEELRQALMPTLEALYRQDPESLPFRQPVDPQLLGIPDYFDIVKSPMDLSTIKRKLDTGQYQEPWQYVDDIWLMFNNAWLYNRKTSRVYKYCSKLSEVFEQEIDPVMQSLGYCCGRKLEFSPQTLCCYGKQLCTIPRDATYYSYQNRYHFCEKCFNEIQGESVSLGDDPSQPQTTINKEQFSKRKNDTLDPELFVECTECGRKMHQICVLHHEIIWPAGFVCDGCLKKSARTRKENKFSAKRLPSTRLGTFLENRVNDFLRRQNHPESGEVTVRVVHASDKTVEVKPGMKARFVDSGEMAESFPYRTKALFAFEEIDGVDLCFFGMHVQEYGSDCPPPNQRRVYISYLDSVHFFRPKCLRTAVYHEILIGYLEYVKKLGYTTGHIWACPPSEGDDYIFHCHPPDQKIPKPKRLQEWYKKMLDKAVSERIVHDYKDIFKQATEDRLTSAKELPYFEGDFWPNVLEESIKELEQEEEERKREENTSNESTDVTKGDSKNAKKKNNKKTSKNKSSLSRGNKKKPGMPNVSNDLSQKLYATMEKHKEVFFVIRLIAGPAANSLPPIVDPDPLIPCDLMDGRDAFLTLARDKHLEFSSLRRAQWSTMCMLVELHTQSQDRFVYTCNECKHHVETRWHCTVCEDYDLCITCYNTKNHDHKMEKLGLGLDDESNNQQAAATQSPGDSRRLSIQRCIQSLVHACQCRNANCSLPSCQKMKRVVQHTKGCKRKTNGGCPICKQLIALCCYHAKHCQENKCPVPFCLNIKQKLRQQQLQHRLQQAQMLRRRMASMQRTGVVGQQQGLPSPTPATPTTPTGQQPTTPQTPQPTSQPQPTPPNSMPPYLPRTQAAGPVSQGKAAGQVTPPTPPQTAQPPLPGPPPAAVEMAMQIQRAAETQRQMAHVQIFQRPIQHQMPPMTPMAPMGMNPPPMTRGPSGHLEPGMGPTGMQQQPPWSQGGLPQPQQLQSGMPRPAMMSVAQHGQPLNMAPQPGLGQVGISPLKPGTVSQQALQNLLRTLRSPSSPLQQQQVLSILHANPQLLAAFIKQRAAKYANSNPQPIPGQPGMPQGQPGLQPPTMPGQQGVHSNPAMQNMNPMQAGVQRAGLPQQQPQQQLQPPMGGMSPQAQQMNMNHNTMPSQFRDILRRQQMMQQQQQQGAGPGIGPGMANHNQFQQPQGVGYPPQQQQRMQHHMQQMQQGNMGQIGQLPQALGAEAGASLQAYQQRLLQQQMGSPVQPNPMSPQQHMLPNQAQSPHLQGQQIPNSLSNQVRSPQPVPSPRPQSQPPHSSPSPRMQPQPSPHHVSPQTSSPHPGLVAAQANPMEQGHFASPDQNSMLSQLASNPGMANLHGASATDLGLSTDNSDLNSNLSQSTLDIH
T3 sequence (Q92793 whole entry): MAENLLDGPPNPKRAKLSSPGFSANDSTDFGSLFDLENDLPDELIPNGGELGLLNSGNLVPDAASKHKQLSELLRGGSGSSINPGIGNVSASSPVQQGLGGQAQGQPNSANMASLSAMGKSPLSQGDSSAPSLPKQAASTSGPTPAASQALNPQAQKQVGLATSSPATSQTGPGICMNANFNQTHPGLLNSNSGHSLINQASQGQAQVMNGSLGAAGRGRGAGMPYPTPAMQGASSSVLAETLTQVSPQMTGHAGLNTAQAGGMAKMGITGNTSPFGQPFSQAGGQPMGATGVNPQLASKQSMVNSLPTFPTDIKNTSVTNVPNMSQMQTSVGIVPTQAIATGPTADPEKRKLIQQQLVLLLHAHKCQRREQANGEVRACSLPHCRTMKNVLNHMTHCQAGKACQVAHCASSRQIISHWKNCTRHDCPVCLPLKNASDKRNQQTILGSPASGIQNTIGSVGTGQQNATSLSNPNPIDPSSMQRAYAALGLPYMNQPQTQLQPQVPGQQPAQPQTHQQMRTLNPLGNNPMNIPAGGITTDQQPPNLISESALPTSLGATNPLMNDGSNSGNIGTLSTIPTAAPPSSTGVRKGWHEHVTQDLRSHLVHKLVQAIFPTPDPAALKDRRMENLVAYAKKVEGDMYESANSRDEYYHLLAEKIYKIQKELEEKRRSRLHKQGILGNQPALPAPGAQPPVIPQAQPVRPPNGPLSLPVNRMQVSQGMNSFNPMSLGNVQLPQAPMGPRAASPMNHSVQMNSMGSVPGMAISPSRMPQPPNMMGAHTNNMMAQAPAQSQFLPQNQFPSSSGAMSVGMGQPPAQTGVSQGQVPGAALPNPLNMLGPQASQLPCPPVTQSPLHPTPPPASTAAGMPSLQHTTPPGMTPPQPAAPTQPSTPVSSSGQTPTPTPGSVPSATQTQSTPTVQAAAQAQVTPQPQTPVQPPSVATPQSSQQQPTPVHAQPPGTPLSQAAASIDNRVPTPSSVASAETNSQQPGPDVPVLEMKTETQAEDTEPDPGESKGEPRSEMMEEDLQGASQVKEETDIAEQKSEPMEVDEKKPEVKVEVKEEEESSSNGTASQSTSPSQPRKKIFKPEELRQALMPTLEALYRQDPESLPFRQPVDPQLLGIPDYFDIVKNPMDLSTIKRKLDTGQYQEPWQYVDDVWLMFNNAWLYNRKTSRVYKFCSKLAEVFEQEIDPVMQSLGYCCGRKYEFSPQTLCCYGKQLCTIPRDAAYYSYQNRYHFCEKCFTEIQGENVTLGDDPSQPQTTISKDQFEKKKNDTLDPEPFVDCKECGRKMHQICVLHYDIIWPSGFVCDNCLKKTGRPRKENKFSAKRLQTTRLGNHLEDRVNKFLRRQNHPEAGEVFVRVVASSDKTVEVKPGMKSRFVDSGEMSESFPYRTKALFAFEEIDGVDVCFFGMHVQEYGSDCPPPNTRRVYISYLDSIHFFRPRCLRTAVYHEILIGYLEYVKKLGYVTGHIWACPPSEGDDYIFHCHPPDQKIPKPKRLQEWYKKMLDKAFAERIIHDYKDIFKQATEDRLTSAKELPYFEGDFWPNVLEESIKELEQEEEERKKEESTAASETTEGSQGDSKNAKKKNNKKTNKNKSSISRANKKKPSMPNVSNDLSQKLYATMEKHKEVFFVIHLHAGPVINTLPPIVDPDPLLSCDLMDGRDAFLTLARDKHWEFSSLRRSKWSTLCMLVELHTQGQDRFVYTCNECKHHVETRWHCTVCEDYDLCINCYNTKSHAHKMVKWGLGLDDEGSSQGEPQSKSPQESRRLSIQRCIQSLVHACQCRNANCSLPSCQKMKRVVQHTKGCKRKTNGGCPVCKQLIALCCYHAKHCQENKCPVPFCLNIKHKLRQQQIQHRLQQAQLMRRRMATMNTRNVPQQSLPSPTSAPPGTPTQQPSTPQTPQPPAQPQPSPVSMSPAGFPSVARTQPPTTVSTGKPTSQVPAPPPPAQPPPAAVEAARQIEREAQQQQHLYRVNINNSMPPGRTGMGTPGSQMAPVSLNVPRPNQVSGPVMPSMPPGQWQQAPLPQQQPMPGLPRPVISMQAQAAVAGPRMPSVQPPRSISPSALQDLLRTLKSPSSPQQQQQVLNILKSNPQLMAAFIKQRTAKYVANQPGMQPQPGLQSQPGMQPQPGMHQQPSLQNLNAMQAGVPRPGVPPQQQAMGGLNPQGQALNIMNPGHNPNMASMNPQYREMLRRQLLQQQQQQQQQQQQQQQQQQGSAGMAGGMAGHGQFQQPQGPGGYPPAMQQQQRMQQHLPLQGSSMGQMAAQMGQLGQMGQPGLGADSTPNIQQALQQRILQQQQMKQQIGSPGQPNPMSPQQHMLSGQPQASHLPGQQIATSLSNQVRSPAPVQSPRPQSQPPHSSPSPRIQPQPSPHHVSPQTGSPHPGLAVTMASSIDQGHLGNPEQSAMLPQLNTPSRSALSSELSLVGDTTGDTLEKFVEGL

As to `C[C@H](N(Cc1ccc(F)cc1)C(=O)CN1C(=O)O[C@@]2(CCc3cc(NC(=O)CCCCCCCCCCCNc4ccc5c(c4)C(=O)N(C4CCC(=O)NC4=O)C5=O)ccc32)C1=O)C(F)(F)F` (stereo partly drawn) [CPD 1, 12-((2-(2,6-dioxopiperidin-3-yl)-1,3-dioxoisoindolin-5-yl)amino)-N—((R)-3′-(2-((4-fluorobenzyl)((S)-1,1,1-trifluoropropan-2-yl)amino)-2-oxoethyl)-2′,4′-dioxo-2,3-dihydrospiro[indene-1,5′-oxazolidin]-5-yl)dodecanamide], on HAT (EP300) domain, the “binding to HAT (EP300) domain” value was “bound and bind”. In addition, the “EP300 degradation (proteomics)” value on EP300 is “selectively and significantly degraded”. In addition, the “growth inhibition compared with A485” value with MM.1S cells is “outperformed inhibitor A485”. For the same compound, the “CBP degradation in CRBN k/o lines” value on CBP was “did not degrade”. In the series with CRBN k/o cell lines, the “cell growth inhibition in CRBN k/o cell lines” value was “did not affect CRBN k/o cell lines”. Besides, the “toxicity in PK study” value in series [1] was “No toxicity was observed”. Further, in series [1] (mouse, whole blood, n=3), the peak level (Cmax) was 5 µM and the half-life was 13 h. Moreover, in series [2], the body weight loss result is “no weight loss was observed” and the tolerability entry is recorded as “well tolerated”. Further, in series [3], the survival of animals result is on record as “extended the survival of animals” and the tumor progression entry is reported as “reduced tumor progression”.

These data come from patent publication US12428412B2 (DANA-FARBER CANCER INSTITUTE, INC., priority 2018, dated 2025).
